From US20250361268A1, “NOVEL ANTI-INFLAMMATORY PEPTIDE AND USE THEREOF” (NOVACELL TECHNOLOGY INC., priority 2022, published 2025)
Peptide text beside a SMILES is read from it.

Legend:
FPR1 = molecular target: T1, FPR1 (Homo sapiens, UniProt P21462); test: Change in calcium activity by peptide, FPR1 activation effect; format: cell-based; details: calcium activity (Fura-2), graded per Table 3, read-out: EC50 for [Ca^2+] FPR1
T1 sequence (P21462 1-350): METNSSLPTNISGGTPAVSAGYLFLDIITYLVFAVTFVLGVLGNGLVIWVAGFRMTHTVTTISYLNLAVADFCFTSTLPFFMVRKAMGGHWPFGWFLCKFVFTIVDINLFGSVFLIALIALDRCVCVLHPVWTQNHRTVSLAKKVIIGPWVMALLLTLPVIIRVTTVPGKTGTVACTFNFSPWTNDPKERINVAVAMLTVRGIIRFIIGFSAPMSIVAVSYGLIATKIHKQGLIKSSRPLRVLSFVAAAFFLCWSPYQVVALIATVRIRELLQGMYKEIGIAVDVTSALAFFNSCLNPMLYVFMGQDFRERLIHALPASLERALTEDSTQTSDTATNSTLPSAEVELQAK
Protocol: The day before measuring calcium activity, the cells were prepared at 3×10^5 cells per well in a 96-well flat clear bottom black plate (Costar, #3603). The prepared cells were treated with a Fura-2 QBT calcium kit (component A; Molecular Devices, #8197) at the same volume per well. After incubation at 37° C. for 1 hour, the cells were incubated in a dark room at room temperature for 30 minutes. After the Fura-2-treated cells, the prepared peptide, and a dedicated tip were placed at each section of FlexStation 3 Multi-Mode Microplate Reader (Molecular Devices, #Flex3), changes in calcium activity caused by the peptides were measured using SoftMax Pro 7 Software (Molecular Devices, #FLEX3-INSTALL-OS). […]

FPR2 = molecular target: T2, FPR2 (Homo sapiens, UniProt P25090); test: Change in calcium activity by peptide (Fura-2) in RBL cells overexpressing FPR2; format: cell-based; details: calcium activity (Fura-2), graded per Table 3, read-out: EC50 for [Ca^2+] FPR2
T2 construct: expressed in transfected cells; host or cells: RBL cells (RBL-FPR2)
T2 sequence (P25090 1-351): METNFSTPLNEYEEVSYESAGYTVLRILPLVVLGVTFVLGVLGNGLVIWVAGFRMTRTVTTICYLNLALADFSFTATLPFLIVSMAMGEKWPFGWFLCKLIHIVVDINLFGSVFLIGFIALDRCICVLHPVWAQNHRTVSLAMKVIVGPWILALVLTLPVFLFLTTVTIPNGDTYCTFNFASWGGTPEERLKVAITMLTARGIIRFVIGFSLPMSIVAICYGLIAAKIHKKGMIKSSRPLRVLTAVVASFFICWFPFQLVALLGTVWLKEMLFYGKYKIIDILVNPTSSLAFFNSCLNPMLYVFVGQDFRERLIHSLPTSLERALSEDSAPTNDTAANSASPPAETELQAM
Protocol: The present inventors observed changes in calcium ion permeability to confirm whether the immunomodulatory peptide candidates prepared according to one example of the present invention activate the immune function of a living organism. Specifically, the concentration of calcium ions in cells was measured to confirm whether the peptides activate FPR2.
A peptide dissolved in water or 50% DMSO at a concentration of 0.5 mM was prepared by diluting it to an appropriate concentration in HBSS (Sigma, #55037C)+20 mM HEPES buffer.
In this experiment, the cells were cultured in DMEM (Lonza, #BE12-604F) containing 10% fetal bovine serum (FBS) and 1% penicillin-streptomycin under conditions of 37° C. and 5% CO2.
The day before measuring calcium activity, the cells were prepared at 3×10^5 cells per well in a 96-well flat clear bottom black plate (Costar, #3603). The prepared cells were treated with a Fura-2 QBT calcium kit (component A; Molecular Devices, #8197) at the same volume per well. After incubation at 37° C. for 1 hour, the cells were incubated in a dark room at room temperature for 30 minutes. After the Fura-2-treated cells, the prepared peptide, and a dedicated tip were placed at each section of FlexStation 3 Multi-Mode Microplate Reader (Molecular Devices, #Flex3), changes in calcium activity caused by the peptides were measured using SoftMax Pro 7 Software (Molecular Devices, #FLEX3-INSTALL-OS).

SMILES | EC50 (FPR1) [nM] | EC50 (FPR2) [nM]
CSCC[C@@H](NC(=O)[C@@H](NC(=O)[C@H](CCCCN)NC(=O)[C@H](Cc1ccc(O)cc1)NC(=O)[C@H](CCCNC(=N)N)NC(=O)[C@H](Cc1c[nH]c2ccccc12)NC(=O)[C@@H](N)CCCNC(=N)N)C(C)C)C(N)=O [Peptide 1] (HELM PEPTIDE1{R.W.R.Y.K.V.[dM].[am]}$$$$V2.0) | > 10000 | < 10
CCCCCCCC(=O)N[C@@H](CCCNC(=N)N)C(=O)N[C@@H](Cc1c[nH]c2ccccc12)C(=O)N[C@@H](CCCNC(=N)N)C(=O)N[C@@H](Cc1ccc(O)cc1)C(=O)N[C@@H](CCCCN)C(=O)N[C@H](C(=O)N[C@H](CCSC)C(N)=O)C(C)C [Peptide 2] (HELM PEPTIDE1{[CCCCCCCC(=O)[*:2]].R.W.R.Y.K.V.[dM].[am]}$$$$V2.0) | 1000 to 10000 | 11 to 100
CSCC[C@@H](NC(=O)[C@@H](NC(=O)[C@H](CCCCN)NC(=O)[C@H](Cc1ccc(O)cc1)NC(=O)[C@H](CCCNC(=N)N)NC(=O)[C@@H](N)Cc1c[nH]c2ccccc12)C(C)C)C(N)=O [Peptide 3] (HELM PEPTIDE1{W.R.Y.K.V.[dM].[am]}$$$$V2.0) | > 10000 | < 10
CSCC[C@@H](NC(=O)[C@@H](NC(=O)[C@H](CCCCN)NC(=O)[C@H](Cc1ccc(O)cc1)NC(=O)[C@H](CCCCN)NC(=O)[C@H](Cc1c[nH]c2ccccc12)NC(=O)[C@H](CCCCN)NC(C)=O)C(C)C)C(N)=O [Peptide 4] (HELM PEPTIDE1{[ac].K.W.K.Y.K.V.[dM].[am]}$$$$V2.0) | > 10000 | < 10
CSCC[C@H](NC(=O)[C@@H](N)CCCNC(=N)N)C(=O)N[C@@H](CCCNC(=N)N)C(=O)N[C@@H](Cc1ccc(O)cc1)C(=O)N[C@@H](CCCCN)C(=O)N[C@H](C(=O)N[C@H](CCSC)C(N)=O)C(C)C [Peptide 5] (HELM PEPTIDE1{R.M.R.Y.K.V.[dM].[am]}$$$$V2.0) | > 10000 | < 10
CSCC[C@H](N)C(=O)N[C@@H](CCCNC(=N)N)C(=O)N[C@@H](Cc1ccc(O)cc1)C(=O)N[C@@H](CCCCN)C(=O)N[C@H](C(=O)N[C@H](CCSC)C(N)=O)C(C)C [Peptide 13] (HELM PEPTIDE1{M.R.Y.K.V.[dM].[am]}$$$$V2.0) | > 10000 | < 10
CSCC[C@H](NC(C)=O)C(=O)N[C@@H](CCCNC(=N)N)C(=O)N[C@@H](Cc1ccc(O)cc1)C(=O)N[C@@H](CCCCN)C(=O)N[C@H](C(=O)N[C@H](CCSC)C(N)=O)C(C)C [Peptide 14] (HELM PEPTIDE1{[ac].M.R.Y.K.V.[dM].[am]}$$$$V2.0) | 1000 to 10000 | < 10
CSCC[C@H](NC(=O)[C@@H]1CCCN1)C(=O)N[C@@H](CCCCN)C(=O)N[C@@H](Cc1ccc(O)cc1)C(=O)N[C@@H](CCCCN)C(=O)N[C@H](C(=O)N[C@H](CCSC)C(N)=O)C(C)C [Peptide 25] (HELM PEPTIDE1{P.M.K.Y.K.V.[dM].[am]}$$$$V2.0) | > 10000 | < 10

The next lines start with the values.

EC50 (FPR1) [nM] | EC50 (FPR2) [nM] | SMILES
> 10000 | < 10 | CCCC(=O)N[C@@H](CCCNC(=N)N)C(=O)N[C@@H](CCSC)C(=O)N[C@@H](CCCNC(=N)N)C(=O)N[C@@H](Cc1ccc(O)cc1)C(=O)N[C@@H](CCCCN)C(=O)N[C@H](C(=O)N[C@H](CCSC)C(N)=O)C(C)C [Peptide 7] (HELM PEPTIDE1{[CCCC(=O)[*:2]].R.M.R.Y.K.V.[dM].[am]}$$$$V2.0)
> 10000 | 11 to 100 | CCCCCCCC(=O)N[C@@H](CCCNC(=N)N)C(=O)N[C@@H](CCSC)C(=O)N[C@@H](CCCNC(=N)N)C(=O)N[C@@H](Cc1ccc(O)cc1)C(=O)N[C@@H](CCCCN)C(=O)N[C@H](C(=O)N[C@H](CCSC)C(N)=O)C(C)C [Peptide 8] (HELM PEPTIDE1{[CCCCCCCC(=O)[*:2]].R.M.R.Y.K.V.[dM].[am]}$$$$V2.0)
> 10000 | 11 to 100 | CSCC[C@H](NC(=O)[C@@H](N)CCCCN)C(=O)N[C@@H](CCCCN)C(=O)N[C@@H](Cc1ccc(O)cc1)C(=O)N[C@@H](CCCCN)C(=O)N[C@H](C(=O)N[C@H](CCSC)C(N)=O)C(C)C [Peptide 9] (HELM PEPTIDE1{K.M.K.Y.K.V.[dM].[am]}$$$$V2.0)
> 10000 | 11 to 100 | CSCC[C@H](NC(=O)[C@H](CCCCN)NC(C)=O)C(=O)N[C@@H](CCCCN)C(=O)N[C@@H](Cc1ccc(O)cc1)C(=O)N[C@@H](CCCCN)C(=O)N[C@H](C(=O)N[C@H](CCSC)C(N)=O)C(C)C [Peptide 10] (HELM PEPTIDE1{[ac].K.M.K.Y.K.V.[dM].[am]}$$$$V2.0)
> 10000 | < 10 | CCCC(=O)N[C@@H](CCCCN)C(=O)N[C@@H](CCSC)C(=O)N[C@@H](CCCCN)C(=O)N[C@@H](Cc1ccc(O)cc1)C(=O)N[C@@H](CCCCN)C(=O)N[C@H](C(=O)N[C@H](CCSC)C(N)=O)C(C)C [Peptide 11] (HELM PEPTIDE1{[CCCC(=O)[*:2]].K.M.K.Y.K.V.[dM].[am]}$$$$V2.0)
> 10000 | 11 to 100 | CCCCCCCC(=O)N[C@@H](CCCCN)C(=O)N[C@@H](CCSC)C(=O)N[C@@H](CCCCN)C(=O)N[C@@H](Cc1ccc(O)cc1)C(=O)N[C@@H](CCCCN)C(=O)N[C@H](C(=O)N[C@H](CCSC)C(N)=O)C(C)C [Peptide 12] (HELM PEPTIDE1{[CCCCCCCC(=O)[*:2]].K.M.K.Y.K.V.[dM].[am]}$$$$V2.0)
> 10000 | < 10 | CCCC(=O)N[C@@H](CCSC)C(=O)N[C@@H](CCCNC(=N)N)C(=O)N[C@@H](Cc1ccc(O)cc1)C(=O)N[C@@H](CCCCN)C(=O)N[C@H](C(=O)N[C@H](CCSC)C(N)=O)C(C)C [Peptide 15] (HELM PEPTIDE1{[CCCC(=O)[*:2]].M.R.Y.K.V.[dM].[am]}$$$$V2.0)
> 10000 | 11 to 100 | CCCCCCCC(=O)N[C@@H](CCSC)C(=O)N[C@@H](CCCNC(=N)N)C(=O)N[C@@H](Cc1ccc(O)cc1)C(=O)N[C@@H](CCCCN)C(=O)N[C@H](C(=O)N[C@H](CCSC)C(N)=O)C(C)C [Peptide 16] (HELM PEPTIDE1{[CCCCCCCC(=O)[*:2]].M.R.Y.K.V.[dM].[am]}$$$$V2.0)
> 10000 | < 10 | CSCC[C@H](NC(=O)[C@@H](N)Cc1c[nH]cn1)C(=O)N[C@@H](CCCCN)C(=O)N[C@@H](Cc1ccc(O)cc1)C(=O)N[C@@H](CCCCN)C(=O)N[C@H](C(=O)N[C@H](CCSC)C(N)=O)C(C)C [Peptide 21] (HELM PEPTIDE1{H.M.K.Y.K.V.[dM].[am]}$$$$V2.0)
> 10000 | < 10 | CSCC[C@H](NC(=O)[C@H](Cc1c[nH]cn1)NC(C)=O)C(=O)N[C@@H](CCCCN)C(=O)N[C@@H](Cc1ccc(O)cc1)C(=O)N[C@@H](CCCCN)C(=O)N[C@H](C(=O)N[C@H](CCSC)C(N)=O)C(C)C [Peptide 22] (HELM PEPTIDE1{[ac].H.M.K.Y.K.V.[dM].[am]}$$$$V2.0)
> 10000 | < 10 | CCCC(=O)N[C@@H](Cc1c[nH]cn1)C(=O)N[C@@H](CCSC)C(=O)N[C@@H](CCCCN)C(=O)N[C@@H](Cc1ccc(O)cc1)C(=O)N[C@@H](CCCCN)C(=O)N[C@H](C(=O)N[C@H](CCSC)C(N)=O)C(C)C [Peptide 23] (HELM PEPTIDE1{[CCCC(=O)[*:2]].H.M.K.Y.K.V.[dM].[am]}$$$$V2.0)
> 10000 | < 10 | CCCCCCCC(=O)N[C@@H](Cc1c[nH]cn1)C(=O)N[C@@H](CCSC)C(=O)N[C@@H](CCCCN)C(=O)N[C@@H](Cc1ccc(O)cc1)C(=O)N[C@@H](CCCCN)C(=O)N[C@H](C(=O)N[C@H](CCSC)C(N)=O)C(C)C [Peptide 24] (HELM PEPTIDE1{[CCCCCCCC(=O)[*:2]].H.M.K.Y.K.V.[dM].[am]}$$$$V2.0)
